In US20240074473A1, “METHOD FOR INDUCING HYPERTROPHIC MUSCLE FIBERS FOR INDUSTRIAL MEAT PRODUCTION” (Yeda Research and Development Co. Ltd., priority 2021, published 2024):

How the values were obtained:
[1] = test system: primary mouse myoblasts; test: qRT-PCR gene expression in primary mouse myoblasts; assay type: cell-based
Description: Quantitative real-time PCR (qRT-PCR). Total RNA was isolated using Tri-Reagent (SIGMA) according to the manufacturer's instructions. cDNA was synthesized with the High Capacity cDNA Reverse Transcription Kit (Applied Biosystems according to the manufacturer's instructions. qRT-PCR was performed with SYBR green PCR Master Mix (Applied Biosystems) using the StepOnePlus Real-time PCR system (Applied Biosystems). Values for specific genes were normalize to either Gapdh or Hprt housekeeping control as indicated in Figure legend. Expression was calculated using the ddCT method.
First passage primary mouse derived myoblast were seeded in proliferation media, in equal number in 12-well tissue culture plates that were precoated with 10% Matrigel solution. Following 24 hours to allow for complete attachment, culture media was washed and replaced either with fresh proliferation media (PM), PM supplemented with 1 uM SCH 772984 (ERKi) or differentiation media (DM). After 24 hrs, cells were lysed and RNA was collected. Gene expression analysis was carried out using SYBR green qRT-PCR analysis.

[2] = test system: CaMKII; test: Western blot of CaMKII activation (p-CaMKII T287) in myoblasts; assay type: cell-based, mouse
Description: Western Blot analysis. Cultured cells and whole tissues extracts were prepared with RIPA buffer supplemented with protease inhibitor cocktail (SIGMA P8340), and phosphatase inhibitor cocktails (SIGMA P5726 and P0044). Western blotting was performed using the Mini-PROTEAN Tetra Cell electrophoresis system, and transferred to PVDF membranes. The following primary antibodies concentrations were used p-CAMKII 1:1000 (Abcam ab182647), CaMKII 1:1000 (Cell Signaling 3362), GAPDH 1:10,000 (Abcam ab181602), p-ERK1/2 1:20,000 (SIGMA M9692), ERK1/2 1:40,000 (SIGMA), Myosin Heavy Chain (MF-20 DSHB hybridoma supernatant 1:100) Horseradish peroxidase conjugated secondary anti-mouse, anti-rabbit or anti-goat was used to detect proteins (Jackson Immunology). Western blots were imaged using the Chemidoc Multiplex system (Bio-rad).

[3] = test system: primary chicken myoblasts; test: Fusion index of primary chicken myoblasts (MyHC immunostaining); assay type: cell-based; conditions: for Fusion: 48 hours post treatment
Description: (§1) Chicken primary derived myoblasts were used as a model to evaluate the efficiency of SCH772984 as the ERKi, compared to conventional differentiation medium (DM) for the purpose of producing muscle (meat) in tissue culture conditions. Chicken myoblasts were isolated from chicken embryos and expanded in proliferation medium. When sufficient cell numbers were acquired, cells were seeded on tissue culture plates and allowed to adhere for 24 hours. Then medium was changed to either PM supplemented with ERKi or DM. At 24-hours post treatment, the cells that received ERKi were replenished with fresh PM (without the addition of more ERKi), and DM treated cells were replenished with fresh DM. Media was replaced daily over a period of 72 hours.
Evaluation of muscle fiber formation was achieved by fixing the cells and staining for expression of Myosin Heavy Chain (FIG. 9A). […] Yet, treatment with conventional DM only began to form fibers beginning at 72-hours post treatment. A fusion index was quantified at 72 hours post treatment (FIG. 9B), in which the percentage of total nuclei present in a myotube (MyHC positive cell with 2 or more nuclei).
Primary chicken myoblast isolation and treatment: chicken myoblasts were isolated from broiler chicken embryos at day 18 from breast and leg muscles by using Trypsin B. Following tissue dissociation, the cell suspension was grown for 3-4 days on 10% Matrigel coated plates. At the first passage, the cells were lifted and pre-plated twice for 30 minutes to enrich for myoblasts and reduce the number of fibroblasts. Then cells were seeded at 8,000/well of optical-96 well plates in proliferation medium. 24 hours after plating, media was aspirated and replaced with the indicated treatment conditions in proliferation media or differentiation media (as indicated). After 24 hours with treatment, the media was aspirated and all wells were replenished with fresh proliferation media or differentiation media without any treatment. This was repeated daily. Cells were fixed at 48 hours after treatment. Compounds were purchased from Cayman Chemicals.
Immunofluorescent staining: Cells were fixed with ice cold 4% PFA in PBS for 10 minutes, permeabilized with 0.5% Triton X-100 in PBS for 6 minutes, and blocked in PBS with 0.025% tween, 10% normal horse serum and 10% normal goat serum for 1 hour at room temperature. Primary antibody incubation was done in blocking buffer overnight at 4 degrees, with the following antibodies: Myosin Heavy Chain (MyHC, MF20, DSHB hybridoma supernatant 1:10, alpha-actinin (SIGMA A7811). Cells were washed 3 times in PBS with 0.025% tween and then incubated with appropriate secondary antibodies in PBS 1 hour. Nuclei were labeled with DAPI (SIGMA D9542, 5 ug/ml). All fusion indexes and imaging analysis were performed on at least 1000 per technical repeat.

[4] = test system: chicken myoblasts; test: Immunofluorescence of sarcomeric proteins in chicken myotubes; assay type: cell-based; conditions: 48 hours post treatment
Description: as §1

[5] = test system: ovine myoblasts; test: Live imaging of fusion in ovine myoblasts; assay type: cell-based; conditions: sheep derived myoblasts, 1 μM
Description: Bovine myoblasts were seeded in equal number in 96-well plates and the following day treated either with PM, PM supplemented with 0.5 uM SCH 772984 (ERKi) or differentiation media (DM). Media was replenished daily either with fresh PM or DM (ERKi was not added again). At 72 hours post treatment, cells were fixed and stained for myosin heavy chain, and several fields per condition were imaged. Nuclei per fiber was quantified per field to result in a fusion index. For ovine myoblasts—equal number of cells were seeded in an 8 well chamber slide for 24 hours. The following day cells were treated with either with 1 uM SCH 772984 (ERKi) or differentiation media (DM), supplemented with 100 nM of Sir-Actin reagent, then incubated for 4 hours and then the slide was transferred to a heated and CO2 chambered microscope unit. Several fields of view were selected and live imaging was performed by capturing images of each field every 7 minutes. The series of images for each treatment over a period of 31 hours was stacked into a movie file using ImageJ.

O=C(Nc1ccc2[nH]nc(-c3ccncc3)c2c1)[C@@H]1CCN(CC(=O)N2CCN(c3ccc(-c4ncccn4)cc3)CC2)C1 [SCH772984]
Expression of Ryr1, Ryr3, SERCA1/2, Orai and STIM ([1]; ERKi 24 hrs vs Ctrl): upregulated
Expression of differentiation and fusion factors MyoD, MyoG, Mymk, Mymx ([1]; ERKi in growth medium, time course): upregulated
Expression of maturation markers myosin heavy chain and troponin compared to DM ([1]; mouse myoblasts, 1 uM ERKi in PM, 24 hrs): stronger expression
Time of CaMKII activation post ERKi treatment ([2]; 1 μM ERKi time-course): ≤ 16 h
CaMKII activation (p-CaMKII T287) ([2]; treatment of myoblasts with ERKi, 24 hours): activated
Muscle fibers begin to form earlier than with DM ([3]; chicken myoblasts): 48 h
Increase in fusion index compared to DM ([3]; chicken myoblasts, 72 hours post treatment): ~4 fold
Fusion index (percentage of total nuclei in MyHC positive cell with 2 or more nuclei) ([3]; chicken myoblasts, 72 hours post treatment, ERKi in PM vs DM): 62%
Time at which myotubes/fibers begin to form ([3]; chicken myoblasts, post treatment): ≤ 24 h
Fusion ([3]; primary chicken myoblasts, Differentiation media, 1 uM): 46%
Fusion ([3]; primary chicken myoblasts, Differentiation media, 10 uM): 61%
Fusion ([3]; primary chicken myoblasts, Proliferation media, 1 uM): 59%
Fusion ([3]; primary chicken myoblasts, Proliferation media, 10 uM): 69%
Fusion index ([3]; primary chicken myoblasts, proliferation medium, ERKi treatment alone (SCH772984 1 uM), 48 hours): 62%
Sarcomeric structure (striation of actinin, troponin, phalloidin signals) [4]: sarcomeric structure is already apparent
Fusion and myotube formation compared to DM [5]: significantly more fusion and myotube formation
